Reference: patent publication US20030228373A1, “Composition including a triamine and a biocide and a method for inhibiting the growth of microorganisms with the same” (Lonza Inc., priority 2002, published 2003)

Test system: microorganisms in the process water
Assay: Microbial count reduction in paper mill process water (3 h contact at 37° C., TGE agar plate count); synergism by the Kull method
Type: cell-based
Settings: for Colony forming units per milliliter of sample (CFU/ml) after overnight incubation / Logarithmic Growth Reduction relative to the Control Experiment [log (CFU/ml of control plate) − log (CFU/ml of experimental plate)]: process water pH 7.0, 3 hours at 37° C.; for concentration alone required to yield a thousand fold reduction in the microorganism count of the process water (Qa, Qb): substance alone
Method: Samples of process water having a pH of 7.0 obtained from a paper mill were supplemented with Lonzabac® 12.100 and Barquat® MB-80 at the concentrations indicated in Table 1 below. Barquat® MB-80 is an 80% aqueous solution of N-(C12-C16 alkyl)-N-benzyl-N,N-dimethylammonium chloride available from Lonza Inc. of Fair Lawn, N.J. Lonzabac® 12.100 is a 100% N,N-bis(3-aminopropyl)-dodecylamine liquid available from Lonza Inc. The samples were immediately mixed and incubated for 3 hours at 37° C. with agitation in an orbital shaker. After 3 hours, tryptone glucose extract (TGE) agar plates were inoculated with each sample and grown overnight at 37° C. The number of colonies on each plate was then counted.
This experiment was repeated with a sample of process water that was not treated with Lonzabac® 12.100 or Barquat® MB-80 as a control.
Synergism for the solutions in Table 1 against the microorganisms in the process water was calculated by the methods described in C. E. Kull et al., “Mixtures of Quaternary Ammonium Compounds and Long-chain Fatty Acids as Antifungal Agents”, Applied Microbiology, 9:538-541 (1961). The synergism value (QA/Qa+QB/Qb) was determined. QA is the concentration of Lonzabac® 12.100 (in ppm) in a Lonzabac® 12.100/Barquat® MB-80 mixture, which yielded a thousand fold reduction in the microorganism count of the process water. Qa is the concentration of Lonzabac® 12.100 alone (in ppm) required to yield a thousand fold reduction in the microorganism count of the process water. QB is the concentration of Barquat® MB-80 (in ppm) in a Lonzabac® 12.100/Barquat® MB-80 mixture, which yielded a thousand fold reduction in the microorganism count of the process water. Qb is the concentration of Barquat® MB-80 alone (in ppm) required to yield a thousand fold reduction in the microorganism count of the process water.
The procedure in Example 1 was repeated substituting peracetic acid for Barquat® MB-80 with the solutions in Table 2 below.

| SMILES | Colony forming units per milliliter of sample (CFU/ml) after overnight incubation (Lonzabac 12.100 15 ppm alone) | Logarithmic Growth Reduction relative to the Control Experiment [log (CFU/ml of control plate) − log (CFU/ml of experimental plate)] (Lonzabac 12.100 15 ppm alone) | Colony forming units per milliliter of sample (CFU/ml) after overnight incubation (Lonzabac 12.100 30 ppm alone) | Logarithmic Growth Reduction relative to the Control Experiment [log (CFU/ml of control plate) − log (CFU/ml of experimental plate)] (Lonzabac 12.100 30 ppm alone) | Colony forming units per milliliter of sample (CFU/ml) after overnight incubation (Lonzabac 12.100 60 ppm alone) | Logarithmic Growth Reduction relative to the Control Experiment [log (CFU/ml of control plate) − log (CFU/ml of experimental plate)] (Lonzabac 12.100 60 ppm alone) | Colony forming units per milliliter of sample (CFU/ml) after overnight incubation (Lonzabac 12.100 90 ppm alone) | Logarithmic Growth Reduction relative to the Control Experiment [log (CFU/ml of control plate) − log (CFU/ml of experimental plate)] (Lonzabac 12.100 90 ppm alone) | concentration alone required to yield a thousand fold reduction in the microorganism count of the process water (Qa, Qb) | Colony forming units per milliliter of sample (CFU/ml) after overnight incubation (Peracetic Acid 20 ppm alone) | Logarithmic Growth Reduction relative to the Control Experiment [log (CFU/ml of control plate) − log (CFU/ml of experimental plate)] (Peracetic Acid 20 ppm alone) | Colony forming units per milliliter of sample (CFU/ml) after overnight incubation (Peracetic Acid 50 ppm alone) | Logarithmic Growth Reduction relative to the Control Experiment [log (CFU/ml of control plate) − log (CFU/ml of experimental plate)] (Peracetic Acid 50 ppm alone) |
| --- | --- | --- | --- | --- | --- | --- | --- | --- | --- | --- | --- | --- | --- |
| CCCCCCCCCCCCN(CCCN)CCCN [Lonzabac ® 12.100, N,N-bis(3-aminopropyl)-dodecylamine] | 6.55 × 10^7 CFU/ml | 0.7 | 6.40 × 10^6 CFU/ml | 1.7 | 3.25 × 10^5 CFU/ml | 3.0 | 1.00 × 10^5 CFU/ml | 3.5 | 60 ppm |  |  |  |  |
| CC(=O)OO [Peracetic Acid, peracetic acid, reference compound] |  |  |  |  |  |  |  |  | 50 ppm | 1.43 × 10^7 CFU/ml | 1.3 | 1.00 × 10^5 CFU/ml | 3.2 |
